# Test results reported in article PMC4853780, “HpDTC1, a Stress-Inducible Bifunctional Diterpene Cyclase Involved in Momilactone Biosynthesis, Functions in Chemical Defence in the Moss Hypnum plumaeforme” (Scientific Reports, 2016).
# How the values were obtained:
# Format in all cases: biochemical
# HpDTC1 [1] = biological target: T1, HpDTC1 (Calohypnum plumiforme, UniProt A0A173M1U8); assay: GC-MS of reaction product; settings: product syn-pimara-7,15-diene
# T1 construct: His6-tag, pCold I, E. coli M-15
# T1 sequence (A0A173M1U8 entry or part of it): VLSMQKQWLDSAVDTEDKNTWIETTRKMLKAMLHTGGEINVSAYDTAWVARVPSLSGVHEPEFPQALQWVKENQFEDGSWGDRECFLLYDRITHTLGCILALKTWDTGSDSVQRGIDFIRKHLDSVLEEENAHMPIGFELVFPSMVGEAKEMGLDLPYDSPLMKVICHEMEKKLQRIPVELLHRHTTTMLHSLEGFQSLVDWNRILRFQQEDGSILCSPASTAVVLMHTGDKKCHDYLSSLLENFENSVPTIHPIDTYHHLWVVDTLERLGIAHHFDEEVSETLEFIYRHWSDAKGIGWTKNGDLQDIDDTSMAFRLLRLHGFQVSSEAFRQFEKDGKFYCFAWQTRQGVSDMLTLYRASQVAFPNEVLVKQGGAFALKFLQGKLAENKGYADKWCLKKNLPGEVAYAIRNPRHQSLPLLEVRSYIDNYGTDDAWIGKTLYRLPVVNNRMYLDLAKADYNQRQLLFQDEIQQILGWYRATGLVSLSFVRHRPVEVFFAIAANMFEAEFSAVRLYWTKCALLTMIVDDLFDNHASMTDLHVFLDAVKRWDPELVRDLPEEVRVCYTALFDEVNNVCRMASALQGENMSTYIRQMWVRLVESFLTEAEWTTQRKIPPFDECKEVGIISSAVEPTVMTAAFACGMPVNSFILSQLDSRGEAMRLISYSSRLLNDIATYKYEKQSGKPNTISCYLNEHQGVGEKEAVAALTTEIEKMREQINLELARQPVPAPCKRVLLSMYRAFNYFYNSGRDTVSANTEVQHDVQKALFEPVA
# OsCPS4 = biological target: T2, OsCPS4 (Oryza sativa, UniProt Q0JF02); assay: GC-MS of product after dephosphorylation; settings: product syn-CDP, detected as syn-copalol after calf intestinal alkaline phosphatase
# T2 construct: gene CPS4; enzyme preparation not described in main text
# T2 sequence (Q0JF02 48-767): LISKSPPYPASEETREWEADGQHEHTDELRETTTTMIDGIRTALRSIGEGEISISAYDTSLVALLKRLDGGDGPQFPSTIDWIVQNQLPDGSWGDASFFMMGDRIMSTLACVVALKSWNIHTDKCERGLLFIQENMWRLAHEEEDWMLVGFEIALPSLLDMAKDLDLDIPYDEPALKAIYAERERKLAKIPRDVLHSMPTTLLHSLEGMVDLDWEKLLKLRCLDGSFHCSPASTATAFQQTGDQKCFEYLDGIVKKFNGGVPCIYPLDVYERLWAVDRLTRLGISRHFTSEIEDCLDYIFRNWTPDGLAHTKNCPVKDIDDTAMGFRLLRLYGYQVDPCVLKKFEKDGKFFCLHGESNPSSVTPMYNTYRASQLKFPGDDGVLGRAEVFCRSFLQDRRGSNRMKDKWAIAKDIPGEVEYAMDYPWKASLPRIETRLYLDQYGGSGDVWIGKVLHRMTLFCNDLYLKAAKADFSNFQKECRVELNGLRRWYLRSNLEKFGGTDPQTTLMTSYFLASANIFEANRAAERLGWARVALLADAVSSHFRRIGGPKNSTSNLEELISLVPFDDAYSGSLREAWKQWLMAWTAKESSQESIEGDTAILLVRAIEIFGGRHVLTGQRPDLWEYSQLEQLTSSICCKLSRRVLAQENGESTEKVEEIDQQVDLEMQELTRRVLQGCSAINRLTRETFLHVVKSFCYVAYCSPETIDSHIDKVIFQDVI
# HpDTC1 [2] = biological target: T3, HpDTC1 (Calohypnum plumiforme, UniProt A0A173M1U8, D394G/D395G); assay: GC-MS of product, co-incubation with OsCPS4; settings: syn-CDP formed in situ from GGDP by OsCPS4; type A activity; product syn-pimara-7,15-diene
# T3 construct: His6-tag, pCold I, E. coli M-15
# T3 sequence (A0A173M1U8 entry or part of it D394G/D395G): as the sequence (A0A173M1U8 entry or part of it) above, with D309G, D310G counted along it
SMILES,GC-MS of reaction product (HpDTC1 [1]),GC-MS of product after dephosphorylation (OsCPS4),"GC-MS of product, co-incubation with OsCPS4 (HpDTC1 [2])"
CC(C)=CCC/C(C)=C/CC/C(C)=C/CC/C(C)=C/COP(=O)(O)OP(=O)(O)O [GGDP],used for the enzyme assay using GGDP as a substrate,"syn-copalol derived from syn-CDP, product of OsCPS4",
C=C1CC[C@H]2C(C)(C)CCC[C@]2(C)[C@@H]1CC/C(C)=C/COP(=O)(O)OP(=O)(O)O [syn-CDP],,,Co-incubation with OsCPS4 and the type B mutant of HpDTC1 (DIGG) complemented the impaired
